Reference: PubChem BioAssay (NCI)
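Cells were grown in 96-well plates and exposed to each compound for 48 hours at five concentrations; endpoints were interpolated linearly between bracketing concentrations, or set to the highest concentration if not reached. TGI denotes the concentration required for complete inhibition of growth.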

Key:
Experiment in all cases: DTP human tumour cell line panel, 48 h
[1] = tested on: MDA-MB-231 breast
[2] = tested on: TK-10 renal
[3] = tested on: NCI-H460 lung
[4] = tested on: SW-620 colon
[5] = tested on: COLO 205 colon
[6] = tested on: HS 578T breast
[7] = tested on: SK-MEL-5 melanoma
[8] = tested on: RXF 393 renal

SMILES: COc1ccc(N2CCN(c3ccc4c(c3)NCC(=O)N4)CC2)cc1
- TGI [1]: > 100 µM
- TGI [2]: > 100 µM
- TGI [3]: > 100 µM
- TGI [4]: > 100 µM
- TGI [5]: > 100 µM
- TGI [6]: 67.1 µM
- TGI [7]: > 100 µM

SMILES: O=C1Nc2ccccc2NC1C1OC(c2ccccc2)=CC1=O (stereo unspecified)
- TGI [1]: > 100 µM
- TGI [2]: > 100 µM
- TGI [8]: > 100 µM
- TGI [3]: > 100 µM
- TGI [4]: > 100 µM
- TGI [5]: > 100 µM
- TGI [6]: > 100 µM
- TGI [7]: > 100 µM

SMILES: CCCCCC(/C=C/[C@@H]1CC(=O)C[C@H]1O[Si](C)(C)C(C)(C)C)OCOCCOC (stereo partly specified)
- TGI [1]: 14.7 µM
- TGI [2]: 26.3 µM
- TGI [8]: 5.45 µM
- TGI [3]: 40.2 µM
- TGI [4]: > 28.1 µM
- TGI [5]: 17.8 µM
- TGI [6]: 8.04 µM
- TGI [7]: 9.33 µM

SMILES: CCOC(OCC)C(CCc1ccccc1)c1c(N)nc(N)[nH]c1=O (stereo unspecified)
- TGI [1]: > 100 µM
- TGI [2]: > 100 µM
- TGI [8]: > 100 µM
- TGI [3]: > 100 µM
- TGI [4]: > 100 µM
- TGI [5]: 49.3 µM
- TGI [6]: > 100 µM
- TGI [7]: > 100 µM

SMILES: O=C(c1ccc(Cl)cc1)N1N=C(c2ccc(Cl)cc2)CC1(O)c1cc(F)c(Cl)cc1Cl (stereo unspecified)
- TGI [1]: > 100 µM
- TGI [2]: > 100 µM
- TGI [8]: > 100 µM
- TGI [3]: > 100 µM
- TGI [4]: > 100 µM
- TGI [5]: 48.8 µM
- TGI [6]: > 100 µM
- TGI [7]: > 100 µM

SMILES: Brc1cccc(C2(CCCC3(c4cccc(Br)n4)OCCO3)OCCO2)n1
- TGI [1]: > 100 µM
- TGI [2]: > 100 µM
- TGI [8]: > 100 µM
- TGI [3]: > 100 µM
- TGI [4]: > 100 µM
- TGI [5]: > 100 µM
- TGI [7]: > 100 µM

SMILES: COC(=O)C1(NC(=O)C(N)CC(=O)O)C(C)C1C (stereo unspecified)
- TGI [1]: > 100 µM
- TGI [2]: > 100 µM
- TGI [8]: > 100 µM
- TGI [3]: > 100 µM
- TGI [4]: > 100 µM
- TGI [5]: > 100 µM
- TGI [6]: > 100 µM
- TGI [7]: > 100 µM

SMILES: CC(C)(C)OC(=O)NC(CCCCNC(=O)OCc1ccccc1)C(=O)NC(CCCCNC(=O)OCc1ccccc1)C(=O)ON1C(=O)CCC1=O (stereo unspecified)
- TGI [1]: > 100 µM
- TGI [2]: > 100 µM
- TGI [8]: > 100 µM
- TGI [4]: > 100 µM
- TGI [5]: > 100 µM
- TGI [6]: > 100 µM
- TGI [7]: > 100 µM

SMILES: Oc1[nH]c2ccccc2c1N=NC(=S)N1CCCCCC1
- TGI [1]: 3.35 µM
- TGI [2]: 7.86 µM
- TGI [8]: 2.43 µM
- TGI [3]: 5.28 µM
- TGI [4]: 9.23 µM
- TGI [5]: 6.2 µM
- TGI [7]: 2.04 µM

SMILES: CC(=O)Oc1ccc(OC(Oc2ccccc2)c2ccccc2)cc1 (stereo unspecified)
- TGI [1]: 48.8 µM
- TGI [2]: > 100 µM
- TGI [8]: 57.1 µM
- TGI [3]: 49.3 µM
- TGI [4]: > 100 µM
- TGI [5]: > 100 µM

SMILES: Cc1ccc(S(=O)(=Nc2ccccc2)C(C(C)C)C(C)(C)Cl)cc1 (stereo unspecified)
- TGI [1]: > 50 µM
- TGI [2]: > 50 µM
- TGI [8]: > 50 µM
- TGI [3]: 45.4 µM
- TGI [4]: > 50 µM
- TGI [5]: 7.56 µM
- TGI [6]: > 50 µM
- TGI [7]: 16.7 µM

SMILES: O=C1c2ccccc2C(=O)N1C(=S)c1ccccc1
- TGI [1]: > 100 µM
- TGI [2]: > 100 µM
- TGI [8]: > 100 µM
- TGI [3]: > 100 µM
- TGI [4]: > 100 µM
- TGI [5]: > 100 µM
- TGI [6]: > 100 µM
- TGI [7]: > 100 µM

SMILES: CCN(CC)C(=S)SNCCc1ccc(S(N)(=O)=O)cc1
- TGI [1]: 30.4 µM
- TGI [2]: 42.5 µM
- TGI [8]: 22.1 µM
- TGI [3]: > 100 µM
- TGI [4]: 36.7 µM
- TGI [5]: > 100 µM
- TGI [6]: 53.1 µM
- TGI [7]: 24.4 µM

SMILES: O=C(Nc1ccc2ccccc2c1)Nn1cnnc1
- TGI [1]: > 100 µM
- TGI [2]: > 100 µM
- TGI [3]: > 100 µM
- TGI [4]: > 100 µM
- TGI [5]: > 100 µM
- TGI [6]: > 100 µM
- TGI [7]: > 100 µM

SMILES: CCOC(=O)/C=C(/C(=O)OCC)n1c(=O)c(C)cn(C2CC(N=[N+]=[N-])C(CO)O2)c1=O (stereo unspecified)
- TGI [1]: 46 µM
- TGI [2]: > 100 µM
- TGI [8]: 57.2 µM
- TGI [3]: > 100 µM
- TGI [4]: 34.1 µM
- TGI [5]: 30.1 µM
- TGI [6]: > 100 µM

SMILES: ClCc1c(-c2ccccc2)nn(-c2ccccc2)c1CCl
- TGI [2]: 29.2 µM
- TGI [8]: 28.3 µM
- TGI [4]: 5.21 µM
- TGI [5]: 25.5 µM
- TGI [7]: 25.2 µM

SMILES: [N-]=[N+]=C1CNC(=O)NC1=O
- TGI [1]: > 100 µM
- TGI [2]: > 100 µM
- TGI [8]: > 100 µM
- TGI [3]: > 100 µM
- TGI [4]: > 100 µM
- TGI [5]: > 100 µM
- TGI [6]: > 100 µM
- TGI [7]: > 100 µM

SMILES: Cc1nnc(N)nc1/C=C\c1cccs1
- TGI [1]: > 100 µM
- TGI [2]: > 100 µM
- TGI [8]: 40.8 µM
- TGI [3]: 32.5 µM
- TGI [4]: > 100 µM
- TGI [5]: > 100 µM
- TGI [6]: > 100 µM

SMILES: CC1CCC2c3c([nH]c4ccccc34)C3C(=O)N(C4CCCCC4)C(=O)C3C2C1 (stereo unspecified)
- TGI [1]: 26.8 µM
- TGI [2]: 27.1 µM
- TGI [8]: 28.9 µM
- TGI [3]: > 100 µM
- TGI [4]: > 100 µM
- TGI [5]: > 100 µM
- TGI [6]: 57.4 µM
- TGI [7]: 36.1 µM

SMILES: C1OCN2c3nonc3N3COCN4c5nonc5N1C2C43 (stereo unspecified)
- TGI [1]: > 100 µM
- TGI [2]: > 100 µM
- TGI [8]: > 100 µM
- TGI [3]: > 100 µM
- TGI [4]: > 100 µM
- TGI [5]: > 100 µM
- TGI [6]: > 100 µM
- TGI [7]: > 100 µM

SMILES: N=C1N=C(N)c2cc3c(cc21)SCCSCCCSCCS3
- TGI [1]: 39.6 µM
- TGI [2]: 28.6 µM
- TGI [8]: 41.3 µM
- TGI [3]: 29.9 µM
- TGI [4]: 30.7 µM
- TGI [5]: 16.9 µM
- TGI [6]: 44.2 µM
- TGI [7]: 31.7 µM

SMILES: CC(=O)OCC1OC(OCC2OC(N3C(=S)N[C@H]([C@@H](O)[C@H](O)[C@H](O)CO)[C@H]3O)C(OC(C)=O)C(OC(C)=O)C2OC(C)=O)C(OC(C)=O)C(OC(C)=O)C1OC(C)=O (stereo partly specified)
- TGI [1]: > 100 µM
- TGI [2]: > 100 µM
- TGI [8]: > 100 µM
- TGI [3]: > 100 µM
- TGI [4]: > 100 µM
- TGI [5]: > 100 µM
- TGI [7]: > 100 µM

SMILES: Cc1ccc([N+](=O)[O-])cc1S(=O)(=O)Nc1ccc(C2=NN(c3ccc([N+](=O)[O-])cc3[N+](=O)[O-])C(c3ccccc3O)C2)cc1 (stereo unspecified)
- TGI [1]: 86.6 µM
- TGI [2]: > 100 µM
- TGI [8]: > 100 µM
- TGI [4]: > 100 µM
- TGI [5]: > 100 µM
- TGI [6]: > 100 µM
- TGI [7]: 61.1 µM

SMILES: O=C1C[C@H](c2ccccc2)C2(C(=O)c3ccccc3C2=O)[C@@H](c2ccccc2)C1
- TGI [1]: > 100 µM
- TGI [8]: > 100 µM
- TGI [3]: > 100 µM
- TGI [5]: 53.6 µM
- TGI [6]: > 100 µM
- TGI [7]: 31 µM

SMILES: CCCCCCC(CCl)c1sc(-c2csc(CCNC(=O)OC(C)(C)C)n2)nc1C(=O)OC (stereo unspecified)
- TGI [1]: > 100 µM
- TGI [2]: > 100 µM
- TGI [3]: 46.8 µM
- TGI [4]: > 100 µM
- TGI [5]: > 100 µM
- TGI [6]: 65.9 µM
- TGI [7]: 16.1 µM

SMILES: CC(/C=N/NC1=NCCCCN1)=N\NC1=NCCCCN1
- TGI [1]: > 100 µM
- TGI [2]: > 100 µM
- TGI [8]: > 100 µM
- TGI [3]: > 100 µM
- TGI [4]: > 100 µM
- TGI [5]: 57 µM
- TGI [6]: > 100 µM
- TGI [7]: > 100 µM
